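Growth conditions: 96-well plates. Treatment: test compound, 48 hours, 5 concentrations. Analysis: linear interpolation between bracketing concentrations; unreached endpoints set to highest concentration. At the TGI there is no net growth.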
How the values were obtained:
Assay in all cases: NCI anticancer screen, dose series, 48 h
LOX IMVI melanoma = test system: LOX IMVI melanoma
BT-549 breast = test system: BT-549 breast
NCI-H460 lung = test system: NCI-H460 lung
OVCAR-8 ovarian = test system: OVCAR-8 ovarian
MDA-N = test system: MDA-N
SN12C renal = test system: SN12C renal
UO-31 renal = test system: UO-31 renal
SNB-75 CNS = test system: SNB-75 CNS
OVCAR-5 ovarian = test system: OVCAR-5 ovarian
OVCAR-3 ovarian = test system: OVCAR-3 ovarian
IGROV1 ovarian = test system: IGROV1 ovarian
SK-MEL-5 melanoma = test system: SK-MEL-5 melanoma
CCRF-CEM leukemia = test system: CCRF-CEM leukemia
MDA-MB-435 = test system: MDA-MB-435
HOP-62 NSCLC = test system: HOP-62 NSCLC
NCI-H226 lung = test system: NCI-H226 lung
A498 renal = test system: A498 renal
SK-MEL-2 melanoma = test system: SK-MEL-2 melanoma
T-47D breast = test system: T-47D breast
SNB-19 CNS = test system: SNB-19 CNS
NCI-H522 lung = test system: NCI-H522 lung
MDA-MB-231 breast = test system: MDA-MB-231 breast
NCI-H23 lung = test system: NCI-H23 lung
MCF7 breast = test system: MCF7 breast
SK-MEL-28 melanoma = test system: SK-MEL-28 melanoma
HCT-15 colon = test system: HCT-15 colon
K-562 leukemia = test system: K-562 leukemia
A549 NSCLC = test system: A549 NSCLC
SW-620 colon = test system: SW-620 colon
RXF 393 renal = test system: RXF 393 renal
EKVX NSCLC = test system: EKVX NSCLC
M14 melanoma = test system: M14 melanoma
PC-3 prostate = test system: PC-3 prostate
HOP-92 NSCLC = test system: HOP-92 NSCLC
CAKI-1 renal = test system: CAKI-1 renal
SR leukemia = test system: SR leukemia
SK-OV-3 ovarian = test system: SK-OV-3 ovarian
DU-145 prostate = test system: DU-145 prostate
NCI/ADR-RES ovarian = test system: NCI/ADR-RES ovarian
HCC-2998 colon = test system: HCC-2998 colon
KM12 colon = test system: KM12 colon
HCT-116 colon = test system: HCT-116 colon
COLO 205 colon = test system: COLO 205 colon
SF-295 CNS = test system: SF-295 CNS
SF-268 CNS = test system: SF-268 CNS
HS 578T breast = test system: HS 578T breast
MALME-3M melanoma = test system: MALME-3M melanoma
RPMI-8226 leukemia = test system: RPMI-8226 leukemia
786-0 renal = test system: 786-0 renal
HT29 colon = test system: HT29 colon
UACC-62 melanoma = test system: UACC-62 melanoma
UACC-257 melanoma = test system: UACC-257 melanoma
OVCAR-4 ovarian = test system: OVCAR-4 ovarian
ACHN renal = test system: ACHN renal
TK-10 renal = test system: TK-10 renal
HL-60(TB) leukemia = test system: HL-60(TB) leukemia
SF-539 CNS = test system: SF-539 CNS
U251 CNS = test system: U251 CNS
MOLT-4 leukemia = test system: MOLT-4 leukemia

Structure (SMILES): O=S(=O)(O)CCCc1cccc2ccccc12
- TGI (LOX IMVI melanoma): > 100 µM
- TGI (BT-549 breast): > 100 µM
- TGI (NCI-H460 lung): > 100 µM
- TGI (OVCAR-8 ovarian): > 100 µM
- TGI (MDA-N): > 100 µM
- TGI (SN12C renal): > 100 µM
- TGI (UO-31 renal): > 100 µM
- TGI (SNB-75 CNS): > 100 µM
- TGI (OVCAR-5 ovarian): > 100 µM
- TGI (OVCAR-3 ovarian): > 100 µM
- TGI (IGROV1 ovarian): > 100 µM
- TGI (SK-MEL-5 melanoma): > 100 µM
- TGI (CCRF-CEM leukemia): > 100 µM
- TGI (MDA-MB-435): > 100 µM
- TGI (HOP-62 NSCLC): > 100 µM
- TGI (NCI-H226 lung): > 100 µM
- TGI (A498 renal): > 100 µM
- TGI (SK-MEL-2 melanoma): > 100 µM
- TGI (T-47D breast): > 100 µM
- TGI (SNB-19 CNS): > 100 µM
- TGI (NCI-H522 lung): > 100 µM
- TGI (MDA-MB-231 breast): > 100 µM
- TGI (NCI-H23 lung): > 100 µM
- TGI (MCF7 breast): > 100 µM
- TGI (SK-MEL-28 melanoma): > 100 µM
- TGI (HCT-15 colon): > 100 µM
- TGI (K-562 leukemia): > 100 µM
- TGI (A549 NSCLC): > 100 µM
- TGI (SW-620 colon): > 100 µM
- TGI (RXF 393 renal): > 100 µM
- TGI (EKVX NSCLC): > 100 µM
- TGI (M14 melanoma): > 100 µM
- TGI (PC-3 prostate): > 100 µM
- TGI (HOP-92 NSCLC): > 100 µM
- TGI (CAKI-1 renal): > 100 µM
- TGI (SR leukemia): > 100 µM
- TGI (SK-OV-3 ovarian): > 100 µM
- TGI (DU-145 prostate): > 100 µM
- TGI (NCI/ADR-RES ovarian): > 100 µM
- TGI (HCC-2998 colon): > 100 µM
- TGI (KM12 colon): > 100 µM
- TGI (HCT-116 colon): > 100 µM
- TGI (COLO 205 colon): > 100 µM
- TGI (SF-295 CNS): > 100 µM
- TGI (SF-268 CNS): > 100 µM
- TGI (HS 578T breast): > 100 µM
- TGI (MALME-3M melanoma): > 100 µM
- TGI (RPMI-8226 leukemia): > 100 µM
- TGI (786-0 renal): > 100 µM
- TGI (HT29 colon): > 100 µM
- TGI (UACC-62 melanoma): > 100 µM
- TGI (UACC-257 melanoma): > 100 µM
- TGI (OVCAR-4 ovarian): > 100 µM
- TGI (ACHN renal): > 100 µM
- TGI (TK-10 renal): > 100 µM
- TGI (HL-60(TB) leukemia): > 100 µM
- TGI (SF-539 CNS): > 100 µM
- TGI (U251 CNS): > 100 µM
- TGI (MOLT-4 leukemia): > 100 µM

Structure (SMILES): Brc1ccc2[nH]cc(-c3csc(-c4c[nH]c5ccccc45)n3)c2c1
- TGI (LOX IMVI melanoma): 4.5 µM
- TGI (BT-549 breast): 22.7 µM
- TGI (NCI-H460 lung): 12.6 µM
- TGI (OVCAR-8 ovarian): 21.2 µM
- TGI (MDA-N): 7.65 µM
- TGI (SN12C renal): 14.2 µM
- TGI (UO-31 renal): 11.3 µM
- TGI (SNB-75 CNS): 23.9 µM
- TGI (OVCAR-5 ovarian): 4.86 µM
- TGI (OVCAR-3 ovarian): 11.8 µM
- TGI (IGROV1 ovarian): 11.6 µM
- TGI (SK-MEL-5 melanoma): 5.64 µM
- TGI (CCRF-CEM leukemia): 5.89 µM
- TGI (MDA-MB-435): 15.7 µM
- TGI (HOP-62 NSCLC): 16.4 µM
- TGI (NCI-H226 lung): 4.56 µM
- TGI (A498 renal): 13.8 µM
- TGI (SK-MEL-2 melanoma): 9.36 µM
- TGI (T-47D breast): 26.9 µM
- TGI (SNB-19 CNS): 9.6 µM
- TGI (NCI-H522 lung): 3.53 µM
- TGI (MDA-MB-231 breast): 6.37 µM
- TGI (NCI-H23 lung): 8.21 µM
- TGI (MCF7 breast): > 100 µM
- TGI (SK-MEL-28 melanoma): 15.3 µM
- TGI (HCT-15 colon): 6.54 µM
- TGI (K-562 leukemia): > 20.8 µM
- TGI (A549 NSCLC): 20.2 µM
- TGI (SW-620 colon): 8.23 µM
- TGI (RXF 393 renal): 11.2 µM
- TGI (EKVX NSCLC): 12 µM
- TGI (M14 melanoma): 5.14 µM
- TGI (PC-3 prostate): 10.2 µM
- TGI (HOP-92 NSCLC): 7.68 µM
- TGI (CAKI-1 renal): 9.2 µM
- TGI (SR leukemia): 10.4 µM
- TGI (SK-OV-3 ovarian): 20.7 µM
- TGI (DU-145 prostate): 9.15 µM
- TGI (NCI/ADR-RES ovarian): 10.5 µM
- TGI (HCC-2998 colon): 3.96 µM
- TGI (KM12 colon): 5.69 µM
- TGI (HCT-116 colon): 6.66 µM
- TGI (COLO 205 colon): 7.72 µM
- TGI (SF-295 CNS): 6.32 µM
- TGI (SF-268 CNS): 8.91 µM
- TGI (HS 578T breast): > 47.9 µM
- TGI (MALME-3M melanoma): 8.21 µM
- TGI (RPMI-8226 leukemia): 12.1 µM
- TGI (786-0 renal): 5.27 µM
- TGI (HT29 colon): 3.29 µM
- TGI (UACC-62 melanoma): > 22.5 µM
- TGI (UACC-257 melanoma): 17.8 µM
- TGI (OVCAR-4 ovarian): 28.1 µM
- TGI (ACHN renal): 13.2 µM
- TGI (TK-10 renal): 12 µM
- TGI (HL-60(TB) leukemia): 14.2 µM
- TGI (SF-539 CNS): 16.7 µM
- TGI (U251 CNS): 8.64 µM
- TGI (MOLT-4 leukemia): 6.18 µM

Source: PubChem BioAssay (NCI)
